# Results reported in patent US9648880B2, “Antifungal agents and uses thereof” (University of Massachusetts, priority 2012, dated 2017).
# “Also recorded” adds a separate entry of the source.
# Experiments:
# [1] = test system: C. albicans hyphae formation; experiment: filamentation assay (hyphal morphogenesis); assay type: cell-based, Candida albicans; details: 50 μM overlay; 37° C., 2 days
# Cryptococcus gatti = experiment: Cryptococcus proliferation; assay type: cell-based; details: 50 μM and 100 μM; 37° C., 18 hours
# Protocol: FIGS. 27A and 27B. Compound #4 inhibits proliferation of Cryptococcus gatti.
# Compound #4 was also tested for its inhibitory effect on the growth of Cryptococcus gatti. Cryptococcus cells were incubated at 37° C. in unsupplemented RPMI tissue culture media (+Glutamine−Phenol Red (Gibco #11835, Life Technologies, Grand Island, N.Y.; “RPMI”) or RPMI tissue culture media supplemented with 100 U/ml Penicillin/100 ug/ml Streptomycin (Gibco 100× Pen/Strep #151500-122), 1 mM NaPyruvate, and 10 mM HEPES pH 7.0 (“Af medium”) in the presence of 1% DMSO (control), 50 μM compound #4, or 100 μM compound #4, and cell numbers were counted after 18 hours. The assay was also performed with an untreated control.
# [2] = test system: C. elegans infected with C. albicans; experiment: C. elegans pathogenesis assay; assay type: in vivo, Caenorhabditis elegans; details: 12.5 μM
# Protocol: We therefore tested whether compound #4 can alter fungal infections in two in vivo settings. First, we performed pathogenesis assays in which nematodes (Caenorhabditis elegans) are infected with C. albicans, resulting in killing of the nematode host (Jain, 2009; Okoli, 2009). We used this assay to test whether compound #4 might have a protective effect, exposing C. elegans to Candida albicans and either DMSO vehicle, the commonly used antifungal drug fluconazole at 12.5 μM, or compound #4 at the same concentration. […] Therefore, consistent with its in vitro activities, compound #4 functions as an antifungal agent in this model infection system.
# Three worms in the L3/L4 stage were transferred to each of two NGM agar plates containing E. coli OP50 and grown at 20° C. for four days. On the day of the experiment, worms were washed off the plates with M9 buffer and centrifuged at 900×g for 2 min. The supernatant was removed, and the worms were then resuspended in a bleach solution (1:4 dilution of commercial bleach (5.25%) diluted in 0.25 M sodium hydroxide). The worm suspension was mixed gently by inversion for 3 min, and centrifuged for 2 min at 2,000×g. The pellet containing the eggs was washed with M9 buffer and centrifuged at 2,000×g for 2 min and then resuspended in 500 μl M9 buffer. […]
# C. albicans SC5314 cells = experiment: pretreatment of C. albicans cells, then adhesion assay; assay type: cell-based, Candida albicans; details: 25 μM; alamarBlue or GFP detection
# Protocol: FIGS. 11A-11D. Compound #4 can coat surfaces and reduce subsequent fungal adhesion. […] is a graph showing the results of pretreatment of polystyrene with candidate compounds. Indicated compounds at 50 μM were incubated in polystyrene 96-well plates overnight. Wells were washed three times with 100 μl of PBS. C. albicans adhesion was then measured using the vital dye alamarBlue, with no additional drug treatment. FIG. 11B is a graph showing titration of compounds #1, 4 and 9 for pre-binding to polystyrene. Indicated concentrations of compounds were pre-incubated with polystyrene plates as above prior to the adhesion assays. FIG. 11C is a graph showing the inhibition of adhesion by pretreatment of C. albicans SC5314 cells with compound #4 prior to introduction to plastic. SC5314 cells were treated with 25 μM compound #4 or DMSO in liquid culture prior to their introduced into polystyrene plates. Cells were washed with PBS prior to resuspension into SCM and seeding into 96-well plates for adhesion assays using alamarBlue detection of remaining cells. […] FIG. 11D is a graph showing the results of an assay performed as in FIG. 11C, except that SC5314-GFP cells were used, and then detected via fluorescence measurement. edt1 indicates non-adherent mutant cells, PBS indicates background fluorescence in absence of cells. […]
# Aspergillus fumigatus = experiment: Aspergillus hyphal formation; assay type: cell-based; details: 50 μM and 100 μM; RPMI overnight
# Protocol: FIGS. 26A-26D. Compound #4 inhibits hyphal formation of Aspergillus fumigatus. FIGS. 26A-26B are photographs showing hyphal development occurs normally in RPMI tissue culture media in the absence of treatment (FIG. 26A) and in the presence of 1% DMSO (control; FIG. 26B). Aspergillus hyphal development was inhibited in the presence of 50 μM and 100 μM compound #4 (FIGS. 26C and 26D, respectively).
# Compound #4 was also tested for its inhibitory effect on the growth of Aspergillus fumigatus. Fresh Aspergillus fumigatus conidia (spores) were grown in RPMI tissue culture media overnight in the presence of 1% DMSO (control), 50 μM compound #4, 100 μM compound #4, or no treatment (control) using methods similar to those described in Ramirez-Ortiz et al. (Cell Host & Microbe 9:415-424, 2011). […] This is the first step in germination of the spores, and is required for pathogenesis.
compound,measurement,setting,value
Cc1ccc(C(=O)N2CCN(c3ccc([N+](=O)[O-])cc3)CC2)cc1Cl [Compound 4],wrinkled colony morphology on solid Spider media,[1],abolished
same,proliferation (cell numbers),Cryptococcus gatti,inhibited proliferation of Cryptococcus gatti at both concentrations tested
same,lifespan of infected worms,[2],significantly increased survival; also recorded: increased the lifespan of the infected worms
same,adhesion of pre-treated cells,C. albicans SC5314 cells,could reduce adhesion of pre-treated cells
same,hyphal formation,Aspergillus fumigatus,blocks hyphal formation at both concentrations tested
